We go through 20 compounds from PubChem BioAssay AID330 (DTP/NCI, 2004).

For the experiment, the system named is P388 leukemia ip, CD2F1 mice, survival T/C. Kind of experiment: NCI In Vivo Anticancer Drug Screen. Data for tumor model P388 Leukemia (intraperitoneal) in CD2F1 (CDF1) mice. Particulars: endpoint: median survival time, higher = longer survival. The essentials: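 Mice carrying the transplanted tumor received test compound or vehicle. Survival was recorded in each group, and the value is the treated-group measurement divided by that of the vehicle-treated control group.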

Setting [1] is: dose: 50.0 mg/kg/injection, schedule: Q01DX005 (ip), vehicle: saline with Tween-80.
Setting [2] is: dose: 200.0 mg/kg/injection, schedule: Q01DX005 (ip), vehicle: saline with Tween-80.
Setting [3] is: dose: 100.0 mg/kg/injection, schedule: Q01DX005 (ip), vehicle: saline with Tween-80.
Where [4] appears, read: dose: 12.5 mg/kg/injection, schedule: Q01DX009 (ip), vehicle: Klucel (hydroxypropylcellulose) (HPC).
The mark [5] stands for this setting: dose: 60.0 mg/kg/injection, schedule: Q01DX005 (ip), vehicle: saline with Tween-80.
Where [6] appears, read: dose: 120.0 mg/kg/injection, schedule: Q01DX005 (ip), vehicle: saline with Tween-80.
The mark [7] stands for this setting: dose: 240.0 mg/kg/injection, schedule: Q01DX005 (ip), vehicle: saline with Tween-80.

Molecules are shown by their SMILES. Values joined by “and” are separate entries in the source; they are usually repeats but may differ in a detail not shown here. Equal entries are not always repeated. Inconclusive results and toxic doses are left out.

Turning to `[NH-]C(CCC(N)=O)C(=O)O.[NH-]C(CCCN=C(N)N)C(=O)O.[Zn+2]` (configuration not stated), the T/C reads like this: (dose: 25.0 mg/kg/injection, schedule: Q01DX005 (ip), vehicle: saline) 100 % of control and 106 % of control; (dose: 50.0 mg/kg/injection, schedule: Q01DX005 (ip), vehicle: saline) 103 % of control and 106 % of control; (dose: 100.0 mg/kg/injection, schedule: Q01DX005 (ip), vehicle: saline) 110 % of control and 119 % of control.

Consider `Cc1c(-c2ccccc2)n(O)c(-c2ccc(N(C)C)cc2)[n+]1[O-]`, for which the T/C is, setting by setting: (dose: 50.0 mg/kg/injection, schedule: Q01DX009 (ip), vehicle: saline with Tween-80) 98 % of control; (dose: 100.0 mg/kg/injection, schedule: Q01DX009 (ip), vehicle: saline with Tween-80) 92 % of control; (dose: 200.0 mg/kg/injection, schedule: Q01DX009 (ip), vehicle: saline with Tween-80) 91 % of control.

Turning to `O=C(/C(=N/Nc1ccccc1)C(=S)Nc1ccccc1)c1ccccc1`, the T/C was 99 % of control (dose: 3.13 mg/kg/injection, schedule: Q01DX005 (ip), vehicle: saline with Tween-80); 95 % of control (dose: 6.25 mg/kg/injection, schedule: Q01DX005 (ip), vehicle: saline with Tween-80); 91 % of control and 92 % of control (dose: 12.5 mg/kg/injection, schedule: Q01DX005 (ip), vehicle: saline with Tween-80); 90 % of control (dose: 25.0 mg/kg/injection, schedule: Q01DX005 (ip), vehicle: saline with Tween-80); 89 % of control and 93 % of control under setting [1]; 90 % of control under setting [2].

Turning to `O=[N+]([O-])c1ccc(SN2CCCCC2)c([N+](=O)[O-])c1`, the T/C by setting is: under setting [1], 100 % of control; under setting [3], 100 % of control; under setting [2], 105 % of control.

For the compound `CCCCN(CCCC)CCNC(c1ccc(OC)cc1)c1ccc(OC)cc1`, the T/C reads like this: under setting [1], 98 % of control; under setting [3], 93 % of control; under setting [2], 96 % of control.

Take `CSC(=S)Nc1nc2ccc(C)cc2s1`: the T/C is 95 % of control (dose: 100.0 mg/kg/injection, schedule: Q04DX003 (ip), vehicle: Klucel (hydroxypropylcellulose) (HPC)); 88 % of control (dose: 200.0 mg/kg/injection, schedule: Q04DX003 (ip), vehicle: Klucel (hydroxypropylcellulose) (HPC)); 92 % of control (dose: 400.0 mg/kg/injection, schedule: Q04DX003 (ip), vehicle: Klucel (hydroxypropylcellulose) (HPC)).

Consider `ClCCN(CCCl)c1ccc(/C=N/Nc2c3c(nc4ccccc24)CCCC3)cc1`, for which the T/C is 95 % of control (dose: 0.39 mg/kg/injection, schedule: Q01DX009 (ip), vehicle: Klucel (hydroxypropylcellulose) (HPC)); 108 % of control (dose: 0.78 mg/kg/injection, schedule: Q01DX009 (ip), vehicle: Klucel (hydroxypropylcellulose) (HPC)); 95 % of control (dose: 1.56 mg/kg/injection, schedule: Q01DX009 (ip), vehicle: Klucel (hydroxypropylcellulose) (HPC)); 90 % of control under setting [4].

On to `CN(C)c1cc(N(C)C)c(N(C)C)cc1N(C)C`, for which the T/C runs as follows: under setting [1], 109 % of control; under setting [3], 102 % of control; under setting [2], 100 % of control.

`O=C(CCN1C(=O)c2ccccc2C1=O)Nc1ncc[nH]1`: the T/C runs as follows: (dose: 8.75 mg/kg/injection, schedule: Q01DX005 (ip), vehicle: Klucel (hydroxypropylcellulose) (HPC)) 98 % of control; (dose: 17.5 mg/kg/injection, schedule: Q01DX005 (ip), vehicle: Klucel (hydroxypropylcellulose) (HPC)) 98 % of control; (dose: 35.0 mg/kg/injection, schedule: Q01DX005 (ip), vehicle: Klucel (hydroxypropylcellulose) (HPC)) 96 % of control.

In the case of `NC1C=NNC1=O` (configuration not stated), the T/C runs as follows: under setting [5], 110 % of control; under setting [6], 116 % of control; under setting [7], 116 % of control.

In the case of `CC12CCC3(O)C(CCC4C(O)C(=O)CCC43C)C1CCC2=O` (configuration not stated), the T/C by setting is: (dose: 11.25 mg/kg/injection, schedule: Q01DX005 (ip), vehicle: Klucel (hydroxypropylcellulose) (HPC)) 105 % of control; (dose: 22.5 mg/kg/injection, schedule: Q01DX005 (ip), vehicle: Klucel (hydroxypropylcellulose) (HPC)) 100 % of control; (dose: 45.0 mg/kg/injection, schedule: Q01DX005 (ip), vehicle: Klucel (hydroxypropylcellulose) (HPC)) 105 % of control; (dose: 90.0 mg/kg/injection, schedule: Q01DX005 (ip), vehicle: Klucel (hydroxypropylcellulose) (HPC)) 114 % of control; (dose: 180.0 mg/kg/injection, schedule: Q01DX005 (ip), vehicle: Klucel (hydroxypropylcellulose) (HPC)) 98 % of control.

On to `OCc1ccc(CO)cc1`, for which the T/C is 104 % of control (dose: 100.0 mg/kg/injection, schedule: Q04DX003 (ip), vehicle: saline sonified); 100 % of control (dose: 200.0 mg/kg/injection, schedule: Q04DX003 (ip), vehicle: saline sonified); 100 % of control (dose: 400.0 mg/kg/injection, schedule: Q04DX003 (ip), vehicle: saline sonified).

On to `Cc1cc(NC(=O)Nc2ccc(Cl)cc2)no1`, for which the T/C was 100 % of control (dose: 100.0 mg/kg/injection, schedule: Q04DX003 (ip), vehicle: saline with Tween-80); 95 % of control (dose: 200.0 mg/kg/injection, schedule: Q04DX003 (ip), vehicle: saline with Tween-80); 100 % of control (dose: 400.0 mg/kg/injection, schedule: Q04DX003 (ip), vehicle: saline with Tween-80).

Consider `O=C1C(Cl)=C(N2CC2)C(=O)C(Cl)=C1N1CC1`, for which the T/C runs as follows: (dose: 0.08 mg/kg/injection, schedule: Q01DX009 (ip), vehicle: saline with Tween-80) 105 % of control; (dose: 0.16 mg/kg/injection, schedule: Q01DX009 (ip), vehicle: saline with Tween-80) 112 % of control; (dose: 0.31 mg/kg/injection, schedule: Q01DX009 (ip), vehicle: saline with Tween-80) 122 % of control; (dose: 0.63 mg/kg/injection, schedule: Q01DX009 (ip), vehicle: saline with Tween-80) 124 % of control; (dose: 2.5 mg/kg/injection, schedule: Q01DX009 (ip), vehicle: saline with Tween-80) 155 % of control; (dose: 5.0 mg/kg/injection, schedule: Q01DX009 (ip), vehicle: saline with Tween-80) 155 % of control. The T/C (dose: 10.0 mg/kg/injection, schedule: Q01DX009 (ip), vehicle: saline with Tween-80) was 155 % of control.

Regarding `CN(C)C(=O)Nc1nc2cc(Cl)c(Cl)cc2[nH]1`, the T/C was 102 % of control (dose: 200.0 mg/kg/injection, schedule: Q04DX003 (oral), vehicle: saline with Tween-80); 117 % of control (dose: 400.0 mg/kg/injection, schedule: Q04DX003 (oral), vehicle: saline with Tween-80); 112 % of control (dose: 800.0 mg/kg/injection, schedule: Q04DX003 (oral), vehicle: saline with Tween-80); 121 % of control (dose: 1600.0 mg/kg/injection, schedule: Q04DX003 (oral), vehicle: saline with Tween-80).

With `COc1ccc(C[N+]2=Cc3cc(OC)c(OC)cc3CC2)cc1`, the T/C reads like this: (dose: 12.5 mg/kg/injection, schedule: Q01DX001 (ip), vehicle: saline + alcohol) 100 % of control; (dose: 25.0 mg/kg/injection, schedule: Q01DX001 (ip), vehicle: saline + alcohol) 98 % of control; (dose: 50.0 mg/kg/injection, schedule: Q01DX001 (ip), vehicle: saline + alcohol) 98 % of control.

As for `O=[N+]([O-])c1ccccc1N/N=C\c1cccc2c(/C=N/Nc3ccccc3[N+](=O)[O-])c(Cl)n(-c3ccccc3)c12`, the T/C (dose: 200.0 mg/kg/injection, schedule: Q01DX001 (ip), vehicle: Klucel (hydroxypropylcellulose) (HPC)) was 88 % of control.

Turning to `CNc1ncn(-c2c(C)cccc2C)c(=O)n1`, the T/C reads like this: under setting [5], 101 % of control and 106 % of control; under setting [6], 108 % of control; under setting [7], 117 % of control.

As to `O=C(O)c1cnc2cc(C(F)(F)F)ccc2c1Nc1ccc2c(c1)OCO2`, the T/C was 103 % of control (dose: 60.0 mg/kg/injection, schedule: Q01DX005 (ip), vehicle: Klucel + Tween-80); 98 % of control (dose: 120.0 mg/kg/injection, schedule: Q01DX005 (ip), vehicle: Klucel + Tween-80); 97 % of control (dose: 240.0 mg/kg/injection, schedule: Q01DX005 (ip), vehicle: Klucel + Tween-80).

For `C=C[Si]12OCCN(CCO1)CCO2`, the T/C reads like this: under setting [4], 119 % of control; (dose: 25.0 mg/kg/injection, schedule: Q01DX009 (ip), vehicle: Klucel (hydroxypropylcellulose) (HPC)) 112 % of control; (dose: 50.0 mg/kg/injection, schedule: Q01DX009 (ip), vehicle: Klucel (hydroxypropylcellulose) (HPC)) 114 % of control; (dose: 100.0 mg/kg/injection, schedule: Q01DX009 (ip), vehicle: Klucel (hydroxypropylcellulose) (HPC)) 109 % of control and 98 % of control; (dose: 200.0 mg/kg/injection, schedule: Q01DX009 (ip), vehicle: Klucel (hydroxypropylcellulose) (HPC)) 102 % of control; (dose: 400.0 mg/kg/injection, schedule: Q01DX009 (ip), vehicle: Klucel (hydroxypropylcellulose) (HPC)) 100 % of control.
